From patent US7138525B2, “N-substituted-2-oxodihydropyridine derivatives” (Banyu Pharmaceutical Co., Ltd., priority 2002, dated 2006)
Like-named read-outs stand apart in the source and are kept apart here.

Assays:
human NPY Y5 receptor = biological target: T1, human NPY Y5 receptor (Homo sapiens, UniProt Q15761); test: NPY binding inhibition test ([125I]peptideYY binding to membranes of NPY Y5 receptor expressing cells); conditions: 25° C., 2 hours, membrane of NPY Y5 receptor expressing cells, read-out: IC50 against specific peptideYY binding
T1 construct: expressed in transfected cells; host or cells: COS-7, CHO and LM(tk-) cells (membrane preparation)
T1 sequence (Q15761 1-445): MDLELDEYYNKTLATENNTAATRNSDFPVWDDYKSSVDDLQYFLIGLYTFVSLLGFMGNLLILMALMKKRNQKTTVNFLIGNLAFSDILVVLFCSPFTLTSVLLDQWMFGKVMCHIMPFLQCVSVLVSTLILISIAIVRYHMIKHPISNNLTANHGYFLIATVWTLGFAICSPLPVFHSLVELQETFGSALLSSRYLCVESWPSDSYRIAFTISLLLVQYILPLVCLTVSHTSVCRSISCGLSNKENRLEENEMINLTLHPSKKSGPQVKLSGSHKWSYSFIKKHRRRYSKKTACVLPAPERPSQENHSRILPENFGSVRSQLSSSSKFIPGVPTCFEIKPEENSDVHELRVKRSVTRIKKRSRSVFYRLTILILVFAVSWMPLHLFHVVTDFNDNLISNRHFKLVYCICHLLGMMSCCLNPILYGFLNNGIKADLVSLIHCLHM
Excerpt: cDNA sequence encoding human NPY Y5 receptor (c.f. International patent publication number WO96/16542) was cloned into expression vectors pcDNA3, pRc/RSV (made by Invitrogen Inc.) and pCI-neo (made by Promega Inc.). The expression vectors thus obtained were transfected to host cells COS-7, CHO and LM(tk−) (American Type Culture Collection) by cationic lipid method (Proceedings of the National Academy of Sciences of the United States of America, vol. 84: p. 7413(1987)) to give NPY Y5 receptor expression cells.
A membrane sample prepared from the cells which expressed NPY Y5 receptor was incubated together with a test compound and [^125I]peptideYY (made by NEN) (20,000 cpm) in an assay buffer (25 mM Tris buffer, pH7.4, containing 10 mM magnesium chloride, 1 mM phenylmethylsulfonyl fluoride, 0.1% bacitracin and 0.5% bovine serum albumin) at 25° C. for 2 hours, then filtered through a glass filter GF/C and washed with 5 mM Tris buffer (pH7.4) containing 0.3% BSA. The radio activity of the cake on the glass filter was measured. Non-specific binding was measured in the presence of 1 μM peptide YY, and a 50% Inhibitory Concentration (IC50) of the test compound against specific peptideYY binding was determined (Endocrinology, vol. 131: p. 2090(1992)).

[1] = Brain/cerebrospinal fluid transport test; format: in vivo; conditions: male SD rats, 2 hours after oral administration (10 mg/kg); for concentration at 2 h: rat
Protocol: A test compound was orally or intravenously administered to male SD rats (7–10 weeks old, 200–400 g), and whole blood was collected from the abdominal aorta using a heparin-treated syringe under the ether anesthesia at designated time. Then, the head skin was cut out, and a dental 30 G needle was inserted between the cervical vertebrae, and it was further inserted into the cavum subarachnoideale. After 50 to 100 μL cerebrospinal fluid had been collected by a 1 ml-syringe through a tube connected to dental 30 G needle, the brain was extracted. The blood sample was centrifuged (4° C., 6,000 r.p.m., 10 minutes) to obtain the plasma. 3-fold amount of ethanol containing an internal standard was added, and stirred. The brain sample was homogenized after addition of 2 ml water, an aliquot of the homogenate was taken and 3-fold amount of ethanol containing an internal standard was added, and stirred. The cerebrospinal fluid was stirred after adding 3-fold amount of ethanol containing an internal standard. These samples were allowed to stand at −20° C. for 20 minutes, and then centrifuged (4° C., 12,000 g, 10 minutes). The supernatant was analyzed by LC/MS/MS, and the concentration of the test compound in the plasma, brain, and cerebrospinal fluid were measured by the method using a relative calibration curve.

[2] = Pharmacokinetics test (plasma concentration by LC/MS/MS); format: in vivo; conditions: rat, male SD rats, overnight fasting, oral or intravenous administration
Protocol: A test compound was orally or intravenously administered to male SD rats (7–10 weeks old, 200–400 g) under the overnight fasting condition. About 100 μL of blood was collected from the tail vein by heparinized capillary at designated time. The blood was centrifuged (4° C., 6,000 r.p.m., 10 minutes) to obtain the plasma. 3-fold amount of ethanol containing an internal standard was added to plasma. The mixture was stirred, allowed to stand at −20° C. for 20 minutes, and then centrifuged (4° C., 10,000 r.p.m., 10 minutes). The supernatant was analyzed by LC/MS/MS, and the concentration of the test compound in the plasma was measured using a relative calibration curve.

SMILES | IC50 (human NPY Y5 receptor) | further results
CCCn1cc(C2=NC(c3ccc(F)cc3)(c3ccc(C(F)(F)F)nc3)[C@H](C)N2)ccc1=O (single isomer, unassigned) [Example 1-9] | 1.5 nM | –
C[C@@H]1NC(c2ccc(=O)n(C(F)F)c2)=NC1(c1ccc(F)cc1)c1ccc(C(F)(F)F)nc1 (single isomer, unassigned) [Example 1-7] | 2.7 nM | concentration in the brain [1]: 2.48 nmol/g; concentration at 2 h ([1]; cerebrospinal fluid, read-out: concentration in the cerebrospinal fluid): 150 nM; concentration at 2 h ([1]; plasma, read-out: concentration in the plasma): 3170 nM; bioavailability [2]: 94%; half-life [2]: 510 min
CCn1cc(C2=NC(c3ccc(F)cc3)(c3ccc(C(F)(F)F)nc3)[C@H](C)N2)ccc1=O (single isomer, unassigned) [Example 1-8] | 2.1 nM | –
CCn1cc(C2=N[C@@](c3ccc(F)cc3)(c3ccc(F)nc3)[C@H](C)N2)cc(F)c1=O [Example 1-25, 1-ethyl-3-fluoro-5-[(4S,5S)-4-(4-fluorophenyl)-4-(6-fluoro-3-pyridyl)-5-methyl-2-imidazolin-2-yl]-2-pyridone] | 2.9 nM | –
CCn1cc(C2=NC(c3ccc(F)cc3)(c3ccc(C(F)(F)F)nc3)[C@H](C)N2)cc(F)c1=O (single isomer, unassigned) [Example 1-29] | 2.9 nM | –
CCn1cc(C2=NC(c3ccc(Cl)cc3)(c3ccnc(F)c3)[C@H](C)N2)ccc1=O (single isomer, unassigned) [Example 1-23] | 2.8 nM | –
CCn1cc(C2=NC(c3ccc(F)cc3)(c3ccc(C(F)(F)F)nc3)[C@H](C)N2)cc(Cl)c1=O (single isomer, unassigned) [Example 1-11] | 2.3 nM | –
C[C@@H]1NC(c2ccc(=O)n(C(F)F)c2)=NC1(c1ccc(Cl)cc1)c1ccnc(F)c1 (single isomer, unassigned) [Example 1-21] | 2.7 nM | –

The next lines start with results.

IC50 (human NPY Y5 receptor) | SMILES | further results
2.6 nM | CCc1cc(C2=N[C@@](c3ccc(F)cc3)(c3ccc(F)nc3)[C@H](C)N2)cn(C)c1=O [Example 1-39, 3-ethyl-5-[(4S,5S)-4-(4-fluorophenyl)-4-(6-fluoro-3-pyridyl)-5-methyl-2-imidazolin-2-yl]-1-methyl-2-pyridone] | –
2.9 nM | CCc1cc(C2=N[C@@](c3ccc(F)cc3)(c3ccc(F)nc3)[C@H](C)N2)cn(C(F)F)c1=O [Example 1-70, 1-difluoromethyl-3-ethyl-5-[(4S,5S)-4-(4-fluorophenyl)-4-(6-fluoro-3-pyridyl)-5-methyl-2-imidazolin-2-yl]-2-pyridone] | –
2.8 nM | CCn1cc(C2=NC(c3ccc(F)cc3)(c3ccc(C(F)F)nc3)[C@H](C)N2)cc(F)c1=O (single isomer, unassigned) [Example 1-45] | –
2.5 nM | COn1cc(C2=N[C@](c3ccc(F)cc3)(c3ccc(C(F)(F)F)nc3)[C@H](C)N2)ccc1=O [Example 1-53, 5-[(4R,5S)-4-(4-fluorophenyl)-5-methyl-4-(6-trifluoromethyl-3-pyridyl)-2-imidazolin-2-yl]-1-methoxy-2-pyridone] | –
2.8 nM | C[C@@H]1NC(c2ccc(=O)n(C(F)F)c2)=NC1(c1ccc(F)cc1)c1ccc(C(F)F)nc1 (single isomer, unassigned) [Example 1-42] | –
